Values quoted from earlier work, collected in patent US10143689B2, “SN-38 loaded iron crosslinked micelle and methods thereof” (Intezyne Technologies, Inc., priority 2017, dated 2018).

Assays:
various cancer cells = conditions: in vitro

solubility in aqueous solutions: exceedingly insoluble
Compound: CCc1c2c(nc3ccc(O)cc13)-c1cc3c(c(=O)n1C2)COC(=O)[C@]3(O)CC [SN-38, 7-ethyl-10-hydroxy-CPT]
cytotoxic activity, potency relative to CPT-11 (various cancer cells): up to 1,000 fold
